Measurements reported in patent US6020341A, “Enediyne quinone imines and methods of preparation and use thereof” (priority 1997, dated 2000).
pIC50: −log10 of the molar value. Read-outs that look alike come from different tables or passages of the source.

Assays:
[1] = tested on: CCRF-CEM/VBL cells; test: Cytotoxicity, CCRF-CEM resistant to vinblastine; type: cell-based, human; details: for pIC50 / IC90: Homo sapiens, CCRF-CEM; for IC90: read-out: Cytotoxic Concentration IC90
From the text: (§1) | cell growth by 50% (IC50) in μM.

[2] = tested on: Human breast adenocarcinoma cells (SK-Br-3); test: Cytotoxicity, SK-Br-3; type: cell-based; details: for pIC50 / IC90: Homo sapiens; for IC90: read-out: Cytotoxic Concentration IC90
From the text: as §1

[3] = tested on: Human testicular teratocarcinoma cells (833K); test: Cytotoxicity, 833K; type: cell-based; details: for pIC50 / IC90: Homo sapiens, 833K; for IC90: read-out: Cytotoxic Concentration IC90
From the text: as §1

[4] = tested on: Chinese hamster lung cells resistant to actinomycin D (DC-3F/ADII); test: Cytotoxicity, DC-3F/ADII; type: cell-based; details: for pIC50 / IC90: Cricetulus griseus, DC3F; for IC90: read-out: Cytotoxic Concentration IC90
From the text: as §1

[5] = tested on: MT-2 leukemic cells; test: Growth inhibition, XTT assay, MT-2; type: cell-based; details: Table 8, MT-2, XTT
Experimental: (§2) Cells were platted on day 1, drug was added on day 2, and XTT assays (for HL-60, MT-2, MT-4 leukemic cells) or SRB assays (for 833K and SK-Br-3 solid tumor cells) were carried out on day 5.

[6] = tested on: MT-4 leukemic cells; test: Growth inhibition, XTT assay, MT-4; type: cell-based; details: Table 8, MT-4, XTT
Experimental: as §2

[7] = tested on: DC-3F cells; test: Single drug effect, SRB assay, DC-3F; type: cell-based, Chinese hamster; details: Cricetulus griseus, DC3F, Table 10, DC-3F, 72 h, read-out: Dm
[8] = tested on: Lewis lung adenocarcinoma; test: Anticancer activity in BDF mice bearing Lewis lung adenocarcinoma; type: in vivo, mouse
Experimental: ^a Tumor (4 × 10^6 cells) was inoculated S.C. Treatment
started on day 4, I.P., QDX5. Control had 4 mice and each dose had 3 mice
Tumor sizes were evaluated on day 7, day 10 and day 14 after beginning of […]

[9] = tested on: solid tumor; test: In vivo toxicity and efficacy in tumor bearing mice (Tables 5-7); set-up: species or system mouse; details: i.p., in words
[10] = Table 14, vinblastine-resistant (VLB100)
[11] = Table 3, CCRF-CEM/VBL, EQI-6 = (1)
[12] = Table 4, DC-3F/ADII, EQI-6 = (1)

`CO[C@@]12[C@H](COC(N)=O)C3=C(C(=O)C(C)=C(N)C3=O)N1C[C@@H]1N[C@@H]12` [mitomycin C] was tested, and the pIC50 ([1]; Table 2, CCRF/VBL (MDR/pg-p), read-out: concentration required to inhibit cell growth by 50% (IC50)) was 6.25, the pIC50 ([1]; Table 3, CCRF-CEM/VBL, read-out: Cytotoxic Concentration IC50) was 6.25 and the IC90 ([1]; Table 3, CCRF-CEM/VBL) was 2330 nM. For the same molecule, the pIC50 ([1]; Table 14, vinblastine-resistant (VLB100), read-out: Cytotoxic Concentration IC50) was 6.04, the IC90 [1, 10] was 2400 nM and the “Cytotoxic Concentration IC95” value ([1]; Table 3, CCRF-CEM/VBL) was 3770 nM. The “ratio of IC50 to EQI-6 (in parentheses)” value [1, 11] was 299.5 ×, the “ratio of IC90 to EQI-6 (in parentheses)” value [1, 11] was 375.8 × and the “ratio of IC95 to EQI-6 (in parentheses)” value [1, 11] was 405.4 ×. The “Cytotoxic Concentration IC95” value [1, 10] was 3327 nM, the pIC50 ([2]; SK-BR-3, Table 2, SK-Br-3 (Breast), read-out: concentration required to inhibit cell growth by 50% (IC50)) was 6.00 and the pIC50 ([2]; SK-BR-3, Table 4, SK-Br-3, read-out: Cytotoxic Concentration IC50) was 6.00. The IC90 ([2]; SK-BR-3, Table 4, SK-Br-3) was 21800 nM, the pIC50 ([2]; SK-BR-3, Table 13, SK-Br-3, read-out: Cytotoxic Concentration IC50) was 5.63 and the IC90 ([2]; SK-BR-3, Table 13, SK-Br-3) was 62900 nM. The “Cytotoxic Concentration IC95” value ([2]; Table 4, SK-Br-3) was 62300 nM, the “ratio of IC50 to EQI-6 (in parentheses)” value ([2]; Table 4, SK-Br-3, EQI-6 = (1)) was 29.2 × and the “ratio of IC90 to EQI-6 (in parentheses)” value ([2]; Table 4, SK-Br-3, EQI-6 = (1)) was 16.6 ×. For the same molecule, the “ratio of IC95 to EQI-6 (in parentheses)” value ([2]; Table 4, SK-Br-3, EQI-6 = (1)) was 187.7 ×, the “Cytotoxic Concentration IC95” value ([2]; Table 13, SK-Br-3) was 192890 nM and the pIC50 ([3]; Table 2, 833K (Testicular), read-out: concentration required to inhibit cell growth by 50% (IC50)) was 6.50. For the same molecule, the pIC50 ([3]; Table 4, 833k, read-out: Cytotoxic Concentration IC50) was 6.50, the IC90 ([3]; Table 4, 833k) was 1530 nM and the pIC50 ([3]; Table 15, 833K, read-out: Cytotoxic Concentration IC50) was 6.40. For the same molecule, the IC90 ([3]; Table 15, 833K) was 2290 nM, the “Cytotoxic Concentration IC95” value ([3]; Table 4, 833k) was 2610 nM and the “ratio of IC50 to EQI-6 (in parentheses)” value ([3]; Table 4, 833k, EQI-6 = (1)) was 45.4 ×. For the same molecule, the “ratio of IC90 to EQI-6 (in parentheses)” value ([3]; Table 4, 833k, EQI-6 = (1)) was 61.2 ×, the “ratio of IC95 to EQI-6 (in parentheses)” value ([3]; Table 4, 833k, EQI-6 = (1)) was 66.9 × and the “Cytotoxic Concentration IC95” value ([3]; Table 15, 833K) was 4155 nM. It also gave a pIC50 ([4]; Table 2, DC-3F/ADII (MDR/Actinomycin D), read-out: concentration required to inhibit cell growth by 50% (IC50)) of 6.95, a pIC50 ([4]; Table 4, DC-3F/ADII, read-out: Cytotoxic Concentration IC50) of 6.95 and an IC90 ([4]; Table 4, DC-3F/ADII) of 380 nM. The pIC50 ([4]; Table 13, DC-3F/ADII, read-out: Cytotoxic Concentration IC50) was 7.13, the IC90 ([4]; Table 13, DC-3F/ADII) was 264 nM and the “Cytotoxic Concentration IC95” value ([4]; Table 4, DC-3F/ADII) was 575 nM. The “ratio of IC50 to EQI-6 (in parentheses)” value [4, 12] was 92.2 ×, the “ratio of IC90 to EQI-6 (in parentheses)” value [4, 12] was 24.7 × and the “ratio of IC95 to EQI-6 (in parentheses)” value [4, 12] was 26.9 ×. The “Cytotoxic Concentration IC95” value ([4]; Table 13, DC-3F/ADII) was 406 nM, the pIC50 [5] was 7.00 and the pIC50 [6] was 6.82. The pIC50 [7] was 7.23, the tumor inhibition ([8]; 0.8 mg/kg i.p. QDx5, day 14, Lewis lung adenocarcinoma) was 56.3% and the “Average Tumor Volume (T/C)” value ([8]; Table 7, 0.4 mg/kg i.p. QDX5, Day 7) was 0.490. The “Average Tumor Volume (T/C)” value ([8]; Table 7, 0.4 mg/kg i.p. QDX5, Day 10) was 0.411, the “Average Tumor Volume (T/C)” value ([8]; Table 7, 0.4 mg/kg i.p. QDX5, Day 14) was 0.515 and the “Average Tumor Volume (T/C)” value ([8]; Table 7, 0.8 mg/kg i.p. QDX5, Day 7) was 0.356. For the same molecule, the “Average Tumor Volume (T/C)” value ([8]; Table 7, 0.8 mg/kg i.p. QDX5, Day 10) was 0.363, the “Average Tumor Volume (T/C)” value ([8]; Table 7, 0.8 mg/kg i.p. QDX5, Day 14) was 0.437 and the mortality ([8]; Table 7, 2.0 mg/kg i.p. QDX5) was “All of three mice died on day 8 or day 9”. For the same molecule, the “Average Tumor Volume (T/C)” value ([8]; Table 7, 2.0 mg/kg i.p. QDX5, Day 7) was 0.169 and the “solid tumor growth inhibition / therapeutic efficacy” value [9] was “Therapeutic efficacy in mice for both appeared similar”.
